Assays:
[1] = Octanol-water partitioning co-efficient, log D of the compound at pH 7.4 by LC/MS/MS analysis; format: physicochemical
[2] = Intrinsic clearance in human hepatocytes assessed per million cells at 1 uM measured up to 120 mins in presence of NADPH by LC-MS/MS analysis; format: ADME, cell-based, Hepatocyte; conditions: read-out: CLH
Rattus norvegicus [3] = assay: Induction of hyperkalemia in Sprague-Dawley rat fed on low salt diet for 72 hrs assessed as increase in Na+/K+ ratio in urine administered via oral gavage after 8 hrs; format: organism-based; conditions: in vivo
Rattus norvegicus [4] = assay: Induction of hyperkalemia in Sprague-Dawley rat fed on low salt diet for 72 hrs assessed as increase in eplerenone-mediated Na+/K+ ratio in urine administered via oral gavage co-administered with after 8 hrs; format: organism-based; conditions: in vivo
[5] = Fraction unbound in Han Wistar rat plasma at 1 uM after 4 hrs by LC/MS/MS analysis; format: ADME, cell-free
[6] = Intrinsic clearance in Han Wistar rat hepatocytes assessed per million cells at 1 uM after 4 hrs by LC/MS/MS analysis; format: ADME, cell-based, Hepatocyte; conditions: read-out: CLH
[7] = Volume of distribution at steady state in Han Wistar rat at 1.2 mg/kg, iv by LC-MS/MS analysis; format: ADME, organism-based; conditions: in vivo, read-out: Vdss
[8] = Clearance in Han Wistar rat at 1.2 mg/kg, iv by LC-MS/MS analysis; format: ADME, organism-based; conditions: in vivo
[9] = Terminal half life in Han Wistar rat at 1.2 mg/kg, iv by LC-MS/MS analysis; format: ADME, organism-based; conditions: in vivo, read-out: beta t1/2 (converted)
[10] = Oral bioavailability in Han Wistar rat at 48 mg/kg by LC-MS/MS analysis; format: ADME, organism-based; conditions: in vivo
[11] = target: T1, Mineralocorticoid receptor (Homo sapiens, UniProt P08235)
T1 sequence (P08235 whole entry): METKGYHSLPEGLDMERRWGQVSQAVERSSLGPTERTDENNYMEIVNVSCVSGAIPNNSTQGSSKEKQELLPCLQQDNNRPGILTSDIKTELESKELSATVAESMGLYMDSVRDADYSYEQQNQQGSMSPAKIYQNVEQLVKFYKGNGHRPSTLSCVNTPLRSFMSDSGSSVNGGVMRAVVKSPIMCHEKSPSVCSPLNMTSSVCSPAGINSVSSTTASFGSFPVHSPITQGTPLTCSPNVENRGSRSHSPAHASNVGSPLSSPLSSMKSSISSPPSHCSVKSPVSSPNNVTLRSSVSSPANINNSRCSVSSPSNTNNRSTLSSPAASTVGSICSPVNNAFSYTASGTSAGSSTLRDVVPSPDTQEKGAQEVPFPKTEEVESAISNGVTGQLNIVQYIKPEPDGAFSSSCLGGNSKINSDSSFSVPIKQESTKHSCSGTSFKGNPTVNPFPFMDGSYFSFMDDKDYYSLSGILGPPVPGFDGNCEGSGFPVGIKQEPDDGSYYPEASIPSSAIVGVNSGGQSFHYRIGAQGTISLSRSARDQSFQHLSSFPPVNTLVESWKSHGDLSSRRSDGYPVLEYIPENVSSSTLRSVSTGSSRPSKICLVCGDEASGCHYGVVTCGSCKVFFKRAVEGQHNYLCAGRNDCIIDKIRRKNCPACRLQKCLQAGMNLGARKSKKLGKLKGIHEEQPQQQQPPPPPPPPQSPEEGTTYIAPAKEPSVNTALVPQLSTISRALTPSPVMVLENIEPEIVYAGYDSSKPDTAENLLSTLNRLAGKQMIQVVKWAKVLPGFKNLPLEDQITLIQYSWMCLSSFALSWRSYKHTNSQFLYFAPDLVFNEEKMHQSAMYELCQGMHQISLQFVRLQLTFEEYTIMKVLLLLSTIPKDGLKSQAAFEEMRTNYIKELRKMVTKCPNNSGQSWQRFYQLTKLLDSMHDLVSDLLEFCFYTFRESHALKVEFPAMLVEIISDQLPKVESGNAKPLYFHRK
Description: Modulation activity at human mineralocorticoid receptor in human EA.hy926 cells assessed as induction of nuclear translocation of mineralocorticoid receptor in absence of aldosterone by receptor translocation assay

[12] = target: T1, Mineralocorticoid receptor; remark: listed apart in the source
Description: Displacement of [3H]-aldosterone to human mineralocorticoid receptor LBD by radiometric binding assay

Glucocorticoid receptor = target: T2, Glucocorticoid receptor (Homo sapiens, UniProt P04150)
T2 sequence (P04150 whole entry): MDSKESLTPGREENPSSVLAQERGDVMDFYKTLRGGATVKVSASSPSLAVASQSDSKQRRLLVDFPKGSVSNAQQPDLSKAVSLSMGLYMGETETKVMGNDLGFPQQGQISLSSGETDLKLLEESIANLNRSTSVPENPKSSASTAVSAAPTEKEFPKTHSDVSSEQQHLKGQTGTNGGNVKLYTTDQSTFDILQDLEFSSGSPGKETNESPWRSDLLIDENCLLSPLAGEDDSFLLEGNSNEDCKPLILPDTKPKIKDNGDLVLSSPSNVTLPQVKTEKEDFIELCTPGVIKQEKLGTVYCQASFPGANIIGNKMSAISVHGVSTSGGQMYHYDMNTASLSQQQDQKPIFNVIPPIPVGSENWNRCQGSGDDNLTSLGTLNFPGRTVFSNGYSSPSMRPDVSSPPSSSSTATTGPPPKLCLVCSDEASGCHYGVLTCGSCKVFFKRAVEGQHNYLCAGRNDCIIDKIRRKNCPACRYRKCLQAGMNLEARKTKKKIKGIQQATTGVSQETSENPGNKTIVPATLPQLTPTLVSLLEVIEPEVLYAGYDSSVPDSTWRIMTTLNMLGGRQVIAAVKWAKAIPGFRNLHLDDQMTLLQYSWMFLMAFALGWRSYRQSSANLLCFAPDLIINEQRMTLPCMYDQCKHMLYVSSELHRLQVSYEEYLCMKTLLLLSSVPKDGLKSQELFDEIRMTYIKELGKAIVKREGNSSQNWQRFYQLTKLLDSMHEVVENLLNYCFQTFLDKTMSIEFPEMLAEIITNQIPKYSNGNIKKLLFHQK
Description: Binding affinity to recombinant human GR LBD by fluormone GS red-fluorescence polarization assay

[13] = target: T1, Mineralocorticoid receptor; remark: listed apart in the source
Description: Antagonist activity at gal4-fused human mineralocorticoid receptor LBD expressed in UAS-MR-bla HEK293 cells by luciferase reporter gene assay

[14] = target: T3, Mineralocorticoid receptor (Rattus norvegicus, UniProt P22199)
T3 sequence (P22199 whole entry): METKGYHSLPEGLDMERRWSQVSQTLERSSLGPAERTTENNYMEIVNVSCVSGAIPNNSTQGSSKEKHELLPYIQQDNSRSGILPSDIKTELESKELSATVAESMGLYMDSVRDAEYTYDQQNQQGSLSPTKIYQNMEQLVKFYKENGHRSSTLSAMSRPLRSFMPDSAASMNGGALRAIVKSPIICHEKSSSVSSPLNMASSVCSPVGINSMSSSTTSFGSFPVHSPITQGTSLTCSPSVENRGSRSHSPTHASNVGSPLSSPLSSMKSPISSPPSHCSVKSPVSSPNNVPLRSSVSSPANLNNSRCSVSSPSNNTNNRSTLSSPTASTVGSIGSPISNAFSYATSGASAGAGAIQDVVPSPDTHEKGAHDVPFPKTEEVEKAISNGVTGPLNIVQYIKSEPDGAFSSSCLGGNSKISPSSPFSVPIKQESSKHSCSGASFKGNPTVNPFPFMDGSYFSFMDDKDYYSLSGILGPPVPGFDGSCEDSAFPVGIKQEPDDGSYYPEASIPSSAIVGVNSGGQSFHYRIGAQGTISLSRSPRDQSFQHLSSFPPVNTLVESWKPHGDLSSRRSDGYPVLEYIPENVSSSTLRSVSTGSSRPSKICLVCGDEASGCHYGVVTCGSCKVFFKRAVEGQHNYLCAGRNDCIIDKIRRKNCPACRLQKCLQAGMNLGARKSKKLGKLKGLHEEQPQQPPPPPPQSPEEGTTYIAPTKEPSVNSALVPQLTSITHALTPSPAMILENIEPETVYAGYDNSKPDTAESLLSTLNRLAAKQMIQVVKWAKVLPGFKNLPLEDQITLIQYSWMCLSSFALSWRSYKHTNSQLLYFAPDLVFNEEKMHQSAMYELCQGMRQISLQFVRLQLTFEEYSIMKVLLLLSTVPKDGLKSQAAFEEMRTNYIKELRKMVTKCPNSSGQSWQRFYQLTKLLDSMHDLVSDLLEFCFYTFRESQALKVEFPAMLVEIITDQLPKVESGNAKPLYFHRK
Description: Antagonist activity at gal4-fused rat mineralocorticoid receptor LBD in expressed in human U2OS cells by luciferase reporter gene assay

[15] = target: T1, Mineralocorticoid receptor; remark: listed apart in the source
Description: Modulation activity at human mineralocorticoid receptor in human EA.hy926 cells assessed as blocking of nuclear translocation of mineralocorticoid receptor in presence of aldosterone by receptor translocation assay

## CNC(=O)C[C@H]1COc2ccc(Cl)cc2N1C(=O)c1ccc2c(c1)NC(=O)CO2
[1]
  logD: 1.8
[2]
  hepatocyte CLint at 1 µM: 4.6 µL/min/1e6 cells
Rattus norvegicus [3]
  Activity: Toxic
Rattus norvegicus [4]
  Activity: Toxic
[5]
  fraction unbound at 4 h, 1 µM: 0.34
[6]
  hepatocyte CLint at 1 µM: 20 µL/min/1e6 cells
[7]
  Vd: 0.8 L/kg
[8]
  clearance: 32 mL/min/kg
[9]
  half-life: 18 min
[10]
  bioavailability: 45%
[11]
  EC50: > 10000 nM
[12]
  Ki: 100 nM
Glucocorticoid receptor
  Ki: 158 nM
[13]
  IC50: 1000 nM
[14]
  IC50: 79.4 nM
[15]
  IC50: 100 nM

Reference: ChEMBL document CHEMBL4422622, “Identification of Mineralocorticoid Receptor Modulators with Low Impact on Electrolyte Homeostasis but Maintained Organ Protection” (J Med Chem, 2019)
